Reference: patent publication US11779585B2 (priority 2020, dated 2023)
Several values for one entry are separate records, joined by “and”; a condition that tells them apart may be missing. Identical values can stand only once. Like-named read-outs stand apart in the source and are kept apart here.

Tests used:
[1] = Rats, cited from earlier work
[2] = African green monkeys, 1.6 mg/kg × 14 days, total dose 22.4; cited from earlier work
[3] = cited from earlier work
SARS-CoV-2 [4] = assay: SARS-CoV-2 infection of Calu3 human lung cells, 72 hours, MOI 2; type: cell-based; details: Severe acute respiratory syndrome coronavirus 2, Calu-3, read-out: Efficacy IC90
[5] = Mice, cited from earlier work
[6] = cited from earlier work; remark: listed apart in the source
SARS-CoV-2 [7] = assay: SARS-CoV-2 infection of VeroE6 cells, 48 hours, MOI 0.012; type: cell-based
MERS-CoV Jordan virus = type: cell-based; details: at a concentration of 0.1 μM, FIG. 1
SARS-CoV2 = assay: microbe, parasite or virus in culture; type: cell-based, SARS-CoV-2; details: for inhibition at 0.075 µM: Severe acute respiratory syndrome coronavirus 2, Vero C1008, 0.075 μM; for inhibition at 0.15 µM: Severe acute respiratory syndrome coronavirus 2, Vero C1008, 0.15 μM; for inhibition at 0.3 µM: Severe acute respiratory syndrome coronavirus 2, Vero C1008, 0.3 μM; for inhibition at 0.6 µM: Severe acute respiratory syndrome coronavirus 2, Vero C1008, 0.6 μM
[8] = Dogs, cited from earlier work
[9] = 0.15 μM, title MOI 0.6 (text MOI 1.3), Plate 1
[10] = 0.3 μM, title MOI 0.6 (text MOI 1.3), Plate 1
[11] = title MOI 0.6 (text MOI 1.3), Plate 1
[12] = title MOI 0.6 (text MOI 1.3), Plate 2

Q: Which results are given for `NC(=O)c1cn([C@@H]2O[C@H](CO)[C@@H](O)[C@H]2O)c2ncnc(N)c12` [Oya1, 4-amino-7-((2R,3R,4S,5R)-3,4-dihydroxy-5-(hydroxymethyl)tetrahydrofuran-2-yl)-7H-pyrrolo[2,3-d]pyrimidine-5-carboxamide]?
A: LD50, multi dose ([1]; × 24 days): 0.05 × 24 days mg/kg; LD50, single dose [1]: 1.2 mg/kg; LD50, total dose (multi dose) [1]: 1.2 mg/kg; Effect [2]: lethal; Cytotoxicity (Vero E6 cells; 0.0047 μM, MOI 0.6, Plate 1): −3.314% and −2.167% and −3.385%; Cytotoxicity (Vero E6 cells; 0.0047 μM, MOI 0.6, Plate 2): −3.314% and −2.167% and −3.385%; Cytotoxicity (Vero E6 cells; 0.0094 μM, MOI 0.6, Plate 1): −0.2353% and −1.9307% and −0.5813%; Cytotoxicity (Vero E6 cells; 0.0094 μM, MOI 0.6, Plate 2): −0.2353% and −1.9307% and −0.5813%; Cytotoxicity (Vero E6 cells; 0.0188 μM, MOI 0.6, Plate 1): −0.5761% and 5.048% and 2.474%; Cytotoxicity (Vero E6 cells; 0.0188 μM, MOI 0.6, Plate 2): −0.5761% and 5.048% and 2.474%; Cytotoxicity (Vero E6 cells; 0.0375 μM, MOI 0.6, Plate 1): 14.23% and 14.79% and 16.69%; Cytotoxicity (Vero E6 cells; 0.0375 μM, MOI 0.6, Plate 2): 14.23% and 14.79% and 16.69%; Cytotoxicity (Vero E6 cells; 0.075 μM, MOI 0.6, Plate 1): 29.56% and 33.64% and 33.6%; Cytotoxicity (Vero E6 cells; 0.075 μM, MOI 0.6, Plate 2): 29.56% and 33.64% and 33.6%; Cytotoxicity (Vero E6 cells; 0.15 μM, MOI 0.6, Plate 1): 49.52% and 51.36% and 51.37%; Cytotoxicity (Vero E6 cells; 0.15 μM, MOI 0.6, Plate 2): 49.52% and 51.36% and 51.37%; Cytotoxicity (Vero E6 cells; [9]): 49.52% and 51.36% and 51.37%; Cytotoxicity (Vero E6 cells; 0.3 μM, MOI 0.6, Plate 1): 66.57% and 64.56% and 64.1314%; Cytotoxicity (Vero E6 cells; 0.3 μM, MOI 0.6, Plate 2): 66.57% and 64.56% and 64.1314%; Cytotoxicity (Vero E6 cells; [10]): 66.57%; Cytotoxicity (Vero E6 cells; 0.6 μM, MOI 0.6, Plate 1): 79.78% and 76.76% and 75.88%; Cytotoxicity (Vero E6 cells; 0.6 μM, MOI 0.6, Plate 2): 79.78% and 76.76% and 75.88%; toxicity margin or selectivity index, high (Vero E6 cells; 8 tests against SARS-CoV-2): 8.2; toxicity margin or selectivity index, low (Vero E6 cells; 8 tests against SARS-CoV-2): 3.1; average toxicity margin or selectivity index (Vero E6 cells; 8 tests against SARS-CoV-2, average): 4.8; anti-cancer activity ([3]; Phase I clinical trials, humans): inactive against cancer; tolerability in humans ([3]; Phase I clinical trials): well tolerated; Reported Safe Clinical Dosing ([3]; daily dosing × 41): 0.12 mg/kg/day × 41; MTD (not reached at highest single dose tested) ([3]; humans, Cavins 1967): > 0.3 mg/kg; Observed toxic effect ([3]; humans, daily, highest dosing regimen 120 μg/kg/day × 41 days): 0; Observed toxic effect ([3]; humans, thrice weekly, highest dosing regimen 50-250 μg/kg/day × 45 days): 0; Observed toxic effect ([3]; humans, weekly, highest dosing regimen 200 μg/kg/day × 150 days): 0; IC90 (SARS-CoV-2 [4]): 180 nM and 0.056 µg/mL; LD50, multi dose ([5]; × 9 days): 0.5 × 9 days mg/kg; LD50, single dose [5]: 4 mg/kg; LD50, total dose (multi dose) [5]: 4.5 mg/kg; half-life in blood ([6]; Mice): 50 h; cleared ([6]; mice, following 12 days post injection): 40%; IC90 (SARS-CoV-2 [7]; Severe acute respiratory syndrome coronavirus 2, Vero C1008, VeroE6, read-out: Efficacy IC90): 55 nM and 0.017 µg/mL; fold more effective against SARS-CoV-2 than Remdesivir (SARS-CoV-2 [7]; cells with highest infection rate (FIGS. 17A-17B: VeroE6, Calu3)): > 47 fold; inhibition of the MERS-CoV RNA polymerase (MERS-CoV Jordan virus): approximately 100%; fold increase in activity over chlorpromazine HCl (SARS-CoV2): 1000 fold; Inhibition (SARS-CoV2; 0.0047 μM, MOI 0.6, Plate 2): 1.733% and −3.975% and 4.262%; Inhibition (SARS-CoV2; 0.0047 μM, title MOI 0.6 (text MOI 1.3), Plate 2): −0.7543% and −8.894% and 0.3653%; Inhibition (SARS-CoV2; 0.0094 μM, MOI 0.2, Plate 1): 24.36% and 12.99%; Inhibition (SARS-CoV2; 0.0094 μM, MOI 0.4, Plate 1): 9.365% and 6.857% and 1.875%; Inhibition (SARS-CoV2; 0.0094 μM, title MOI 0.6 (text MOI 1.3), Plate 2): 5.994% and 7.809% and 12.95%; Inhibition (SARS-CoV2; 0.0188 μM, title MOI 0.6 (text MOI 1.3), Plate 1): 4.894% and 1.871% and −1.054%; fold better IC50 than GS-441524 (SARS-CoV2; 0.03 μM vs 1.4 μM): 47 fold; Inhibition (SARS-CoV2; 0.0375 μM, MOI 0.2, Plate 2): 31.89% and 46.61%; Inhibition (SARS-CoV2; 0.0375 μM, MOI 0.4, Plate 1): 12.31% and 18.82%; Inhibition (SARS-CoV2; 0.0375 μM, MOI 0.6, Plate 1): 27.4624% and 39.74% and 52.32%; Inhibition (SARS-CoV2; 0.0375 μM, MOI 0.6, Plate 2): 59.38% and 43.5% and 83.02%; Inhibition (SARS-CoV2; 0.075 μM, MOI 0.2, Plate 1): 81.55% and 79.85%; Inhibition (SARS-CoV2; 0.075 μM, MOI 0.2, Plate 2): 88.5915% and 83.72% and 67.19%; Inhibition (SARS-CoV2; 0.075 μM, MOI 0.4, Plate 1): 50.83% and 69.6% and 36.13%; Inhibition (SARS-CoV2; 0.075 μM, MOI 0.4, Plate 2): 24.91% and 28.1512%; Inhibition (SARS-CoV2; 0.075 μM, MOI 0.6, Plate 1): 98.66% and 98.3%; Inhibition (SARS-CoV2; 0.075 μM, MOI 0.6, Plate 2): 97.59%; Inhibition (SARS-CoV2; 0.075 μM, title MOI 0.6 (text MOI 1.3), Plate 1): 100.0792% and 80.42%; Inhibition (SARS-CoV2; 0.075 μM, title MOI 0.6 (text MOI 1.3), Plate 2): 99.3891% and 97.8301%; Inhibition (SARS-CoV2; 0.15 μM, MOI 0.2, Plate 1): 99.12% and 95.59%; Inhibition (SARS-CoV2; 0.15 μM, MOI 0.2, Plate 2): 99.22%; Inhibition (SARS-CoV2; 0.15 μM, MOI 0.4, Plate 1): 98.7% and 94.16%; Inhibition (SARS-CoV2; 0.15 μM, MOI 0.4, Plate 2): 86.8%; Inhibition (SARS-CoV2; 0.15 μM, MOI 0.6, Plate 1): 99.78% and 99.74%; Inhibition (SARS-CoV2; [9]): 100.3795%; Inhibition (SARS-CoV2; 0.3 μM, MOI 0.2, Plate 1): 99.69%; Inhibition (SARS-CoV2; 0.3 μM, MOI 0.2, Plate 2): 99.99%; Inhibition (SARS-CoV2; 0.3 μM, MOI 0.4, Plate 1): 99.72%; Inhibition (SARS-CoV2; 0.3 μM, MOI 0.6, Plate 1): 85.36%; Inhibition (SARS-CoV2; [10]): 97.59%; Inhibition (SARS-CoV2; 0.6 μM, MOI 0.2, Plate 1): 99.15%; Inhibition (SARS-CoV2; 0.6 μM, MOI 0.6, Plate 2): 96.04%; fold greater efficacy (IC50) than remdesivir (SARS-CoV2; Oya1 0.03 μM vs remdesivir 0.77 μM (Wang et al.)): 25 fold; IC50 (SARS-CoV2; Severe acute respiratory syndrome coronavirus 2, Vero C1008): 30 nM; inhibition at 0.0047 µM (SARS-CoV2; Severe acute respiratory syndrome coronavirus 2, Vero C1008, 0.0047 μM, MOI 0.4, Plate 2): 8.02%; inhibition at 0.0094 µM (SARS-CoV2; Severe acute respiratory syndrome coronavirus 2, Vero C1008, 0.0094 μM, MOI 0.4, Plate 2): 15.2%; inhibition at 0.0188 µM (SARS-CoV2; Severe acute respiratory syndrome coronavirus 2, Vero C1008, 0.0188 μM, MOI 0.4, Plate 2): 15.6%; inhibition at 0.0375 µM (SARS-CoV2; Severe acute respiratory syndrome coronavirus 2, Vero C1008, 0.0375 μM, MOI 0.4, Plate 1): 10.9%; inhibition at 0.075 µM (SARS-CoV2; MOI 0.2, Plate 1): 67.8%; inhibition at 0.075 µM (SARS-CoV2; MOI 0.4, Plate 2): 19.8%; inhibition at 0.15 µM (SARS-CoV2; MOI 0.2, Plate 1): 97.2%; inhibition at 0.15 µM (SARS-CoV2; MOI 0.2, Plate 2): 96%; inhibition at 0.15 µM (SARS-CoV2; MOI 0.4, Plate 1): 95.9%; inhibition at 0.15 µM (SARS-CoV2; MOI 0.4, Plate 2): 83.4%; inhibition at 0.15 µM (SARS-CoV2; MOI 0.6, Plate 1): 98.6%; inhibition at 0.15 µM (SARS-CoV2; MOI 0.6, Plate 2): 99.7%; inhibition at 0.15 µM (SARS-CoV2; [11]): 101%; inhibition at 0.15 µM (SARS-CoV2; [12]): 101%; inhibition at 0.3 µM (SARS-CoV2; MOI 0.2, Plate 1): 99.9%; inhibition at 0.3 µM (SARS-CoV2; MOI 0.2, Plate 2): 100%; inhibition at 0.3 µM (SARS-CoV2; MOI 0.4, Plate 1): 96.9%; inhibition at 0.3 µM (SARS-CoV2; MOI 0.4, Plate 2): 91.4%; inhibition at 0.3 µM (SARS-CoV2; MOI 0.6, Plate 1): 100%; inhibition at 0.3 µM (SARS-CoV2; MOI 0.6, Plate 2): 100%; inhibition at 0.3 µM (SARS-CoV2; [11]): 100%; inhibition at 0.3 µM (SARS-CoV2; [12]): 101%; inhibition at 0.6 µM (SARS-CoV2; MOI 0.2, Plate 1): 100%; inhibition at 0.6 µM (SARS-CoV2; MOI 0.2, Plate 2): 99.7%; inhibition at 0.6 µM (SARS-CoV2; MOI 0.4, Plate 1): 100%; inhibition at 0.6 µM (SARS-CoV2; MOI 0.4, Plate 2): 67.4%; inhibition at 0.6 µM (SARS-CoV2; MOI 0.6, Plate 1): 100%; inhibition at 0.6 µM (SARS-CoV2; MOI 0.6, Plate 2): 99.7%; inhibition at 0.6 µM (SARS-CoV2; [11]): 101%; inhibition at 0.6 µM (SARS-CoV2; [12]): 101%; LD50, multi dose ([8]; × 14 days): 0.3 × 14 days mg/kg; LD50, single dose [8]: 2.5 mg/kg; LD50, total dose (multi dose) [8]: 4.2 mg/kg
